The values that follow come from US20240279223A1, “5-OXO-PYRIDO[2,3-D]PYRIDAZIN-6(5H)-YL ACETAMIDES” (JANSSEN PHARMACEUTICA NV, priority 2021, published 2024).

One test deals with IL-1β. The test can be described thus: PBMC assay: IL-1β release after LPS stimulation. The test is classed as cell-based. The settings on record: human PBMCs, 30 min preincubation, 100 ng/ml LPS for 6 hrs, supernatant, MSD technology. As to the method:
(§1) Peripheral venous blood was collected from healthy individuals and human peripheral blood mononuclear cells (PBMCs) were isolated from blood by Ficoll-Histopaque (Sigma-Aldrich, A0561) density gradient centrifugation. After isolation, PBMCs were stored in liquid nitrogen for later use. Upon thawing, PBMC cell viability was determined in growth medium (RPMI media supplemented with 10% fetal bovine serum, 1% Pen-Strep and 1% L-glutamine). Compounds were spotted in a 1:3 serial dilution in DMSO and diluted to the final concentration in 30 μl medium in 96 well plates (Falcon, 353072). PBMCs were added at a density of 7.5×10^4 cells per well and incubated for 30 min in a 5% CO2 incubator at 37° C. LPS stimulation was performed by addition of 100 ng/ml LPS (final concentration, Invivogen, tirl-smlps) for 6 hrs followed by collection of cellular supernatant and the analysis of IL-1β (μM) and TNF cytokines levels (μM) via MSD technology according to manufacturers' guidelines (MSD, K 151A0H).
(§2) The IC50 values (for IL-1β) and EC50 values (TNF) were obtained on compounds of the invention/examples, and are depicted in the following table: […]

The next test has as its system TNF. The test can be described thus: PBMC assay: TNF cytokine levels after LPS stimulation. The settings on record: human PBMCs, 30 min preincubation, 100 ng/ml LPS for 6 hrs, supernatant, MSD technology. It counts as cell-based. Here is the method: as §1, §2

Broadly, the IC50 is the concentration at which inhibition is half-maximal. Higher therefore signals lower potency. For orientation: EC50 means the midpoint of the concentration-response curve. High values mean a less potent agent, low ones a more potent agent.

`CC(C)c1nn(CC(=O)Nc2ccnnc2)c(=O)c2ccc(C(F)(F)F)nc12` [Compound 18] came in with an IC50 in the test with IL-1β (Homo sapiens, PBMC) of 410 nM. Further, a half-maximal effect in the test on TNF (Homo sapiens, PBMC) (EC50) was put at 12600 nM.

For the molecule `CCc1nn(CC(=O)Nc2ccncn2)c(=O)c2ccc(C3CC3)nc12` [Compound 3], the IC50 in the test with IL-1β (Homo sapiens, PBMC) stood at 4490 nM. This molecule also returned an EC50 in the test with TNF (Homo sapiens, PBMC) above 20000 nM.

As to `CC(C)c1nn(CC(=O)Nc2ccc3cn[nH]c3c2)c(=O)c2ccc(C(F)(F)F)nc12` [Compound 26, N-(1H-indazol-6-yl)-2-(8-isopropyl-5-oxo-2-(trifluoromethyl)pyrido[2,3-d]pyridazin-6(5H)-yl)acetamide], the IC50 with IL-1β (Homo sapiens, PBMC) was determined as 170 nM. This molecule came in with an EC50 in the test on TNF (Homo sapiens, PBMC) above 20000 nM.

Turning to `CN(C)c1nn(CC(=O)Nc2ccc3nncn3n2)c(=O)c2ccc(C(C)(F)F)nc12` [Compound 25], in the test with IL-1β, the midpoint of inhibition, the IC50, lay at 750 nM. In addition, the EC50 in the test on TNF was above 20000 nM.

The molecule `CC(C)c1nn(CC(=O)Nc2ccc3nncn3n2)c(=O)c2ccc(C(C)(F)F)nc12` [Compound 21] returned an IC50 in the test on IL-1β (Homo sapiens, PBMC) of 70 nM. For the same molecule, the EC50 in the test with TNF (Homo sapiens, PBMC) came out at 2870 nM.

`CC(C)c1nn(CC(=O)NC2CCOCC2)c(=O)c2ccc(C(F)(F)F)nc12` [Compound 12] gave an IC50 with IL-1β (Homo sapiens, PBMC) of 780 nM. In the test with TNF (Homo sapiens, PBMC), this molecule displayed an EC50 above 20000 nM.

On to `CN(C)c1nn(CC(=O)Nc2ccc3nncn3c2)c(=O)c2ccc(C(F)(F)F)nc12` [Compound 9], for which the IC50 with IL-1β (Homo sapiens, PBMC) came out at 320 nM. This molecule also had an EC50 with TNF (Homo sapiens, PBMC) above 20000 nM.

`CCc1nn(CC(=O)Nc2ccc3nncn3c2)c(=O)c2ccc(OC)nc12` [Compound 7] gave an IC50 in the test with IL-1β (Homo sapiens, PBMC) of 6770 nM. Moreover, the concentration for a half-maximal effect (EC50) in the test with TNF (Homo sapiens, PBMC) was above 20000 nM.

As for `CC(C)c1nn(CC(=O)Nc2ccc(=O)n(C)c2)c(=O)c2ccc(C(F)(F)F)nc12` [Compound 16], half-maximal inhibition with IL-1β (Homo sapiens, PBMC) (IC50) was put at 330 nM. Also, in the test with TNF (Homo sapiens, PBMC), the EC50 was above 20000 nM.

In turn, `CCc1nn(CC(=O)N[C@H]2C[C@@](C)(O)C2)c(=O)c2ccc(C3CC3)nc12` [Compound 4] displayed an IC50 in the test on IL-1β (Homo sapiens, PBMC) of 370 nM.

Regarding `CN(C)c1nn(CC(=O)Nc2ccc3nncn3n2)c(=O)c2ccc(C(F)(F)F)nc12` [Compound 23], the IC50 with IL-1β was 340 nM. In the test on TNF, this molecule registered an EC50 above 20000 nM.

As for `Cc1cc(NC(=O)Cn2nc(C(C)C)c3nc(C(F)(F)F)ccc3c2=O)ccn1` [Compound 17], the IC50 in the test on IL-1β (Homo sapiens, PBMC) worked out at 480 nM. The molecule also yielded an EC50 in the test on TNF (Homo sapiens, PBMC) of 16600 nM.

In the test with IL-1β (Homo sapiens, PBMC), `CC(C)c1nn(CC(=O)Nc2ccc3nncn3c2)c(=O)c2ccc(C(C)(F)F)nc12` [Compound 8] showed an IC50 of 120 nM. Further, in the test with TNF (Homo sapiens, PBMC), it took 17000 nM to reach a half-maximal effect (EC50).

As to `CCc1nn(CC(=O)N[C@H]2C[C@@](C)(O)C2)c(=O)c2ccc(C(C)C)nc12` [Compound 1], the IC50 in the test on IL-1β (Homo sapiens, PBMC) was 520 nM. For the same molecule, the EC50 in the test with TNF (Homo sapiens, PBMC) worked out at 10600 nM.

The molecule `CN(C)c1nn(CC(=O)Nc2ccc3nncn3n2)c(=O)c2ccc(C(C)(F)F)nc12` [Compound 24] came in with an IC50 in the test with IL-1β of 300 nM. Further, the EC50 in the test with TNF (Homo sapiens, PBMC) was above 20000 nM.

In the case of `CCc1nn(CC(=O)Nc2ccncn2)c(=O)c2ccc(C(C)C)nc12` [Compound 2], the IC50 in the test with IL-1β (Homo sapiens, PBMC) is 1490 nM. Moreover, the EC50 with TNF (Homo sapiens, PBMC) was above 20000 nM.

For `CC(C)c1nn(CC(=O)Nc2cncnc2)c(=O)c2ccc(C(F)(F)F)nc12` [Compound 19], in the test with IL-1β (Homo sapiens, PBMC), the IC50 turned out to be 60 nM. This molecule gave an EC50 in the test with TNF (Homo sapiens, PBMC) of 11800 nM.

In turn, `CN(C)c1nn(CC(=O)Nc2ccc3nncn3c2)c(=O)c2ccc(C(C)(F)F)nc12` [Compound 10] came in with an IC50 in the test with IL-1β (Homo sapiens, PBMC) of 300 nM. In the test on TNF (Homo sapiens, PBMC), the EC50 was above 20000 nM.

In the case of `CCc1nn(CC(=O)Nc2ccc3nncn3c2)c(=O)c2ccc(C3CC3)nc12` [Compound 5], the IC50 with IL-1β (Homo sapiens, PBMC) was found to be 320 nM. Also, in the test with TNF (Homo sapiens, PBMC), the EC50 was 12900 nM.

`CC(C)c1nn(CC(=O)Nc2ccc3cnn(C(=O)OC(C)(C)C)c3c2)c(=O)c2ccc(C(F)(F)F)nc12` [Compound 11, tert-butyl 6-(2-(8-isopropyl-5-oxo-2-(trifluoromethyl)pyrido[2,3-d]pyridazin-6(5H)-yl)acetamido)-1H-indazole-1-carboxylate] displayed an IC50 with IL-1β (Homo sapiens, PBMC) of 520 nM. The molecule further gave an EC50 in the test on TNF (Homo sapiens, PBMC) above 20000 nM.

`CC(C)c1nn(CC(=O)Nc2ccc3nncn3c2)c(=O)c2ccc(C(F)(F)F)nc12` [Compound 13] came in with an IC50 with IL-1β (Homo sapiens, PBMC) of 100 nM. The same molecule displayed an EC50 with TNF (Homo sapiens, PBMC) above 20000 nM.

In the case of `CC(C)c1nn(CC(=O)Nc2ccc3nncn3n2)c(=O)c2ccc(C(F)(F)F)nc12` [Compound 20, N-([1,2,4]triazolo[4,3-b]pyridazin-6-yl)-2-(8-isopropyl-5-oxo-2-(trifluoromethyl)pyrido[2,3-d]pyridazin-6(5H)-yl)acetamide], the IC50 with IL-1β (Homo sapiens, PBMC) was 2930 nM. The molecule also registered an EC50 in the test on TNF (Homo sapiens, PBMC) above 20000 nM.

For the molecule `CC(C)c1nn(CC(=O)N[C@H]2C[C@@](C)(O)C2)c(=O)c2ccc(C(F)(F)F)nc12` [Compound 14], the concentration for half-maximal inhibition (IC50) in the test with IL-1β (Homo sapiens, PBMC) is 50 nM. Further, in the test with TNF (Homo sapiens, PBMC), the EC50 is above 20000 nM.

`CC(C)c1nn(CC(=O)Nc2ccc3nccn3c2)c(=O)c2ccc(C(F)(F)F)nc12` [Compound 15] yielded an IC50 in the test on IL-1β (Homo sapiens, PBMC) of 390 nM. This molecule yielded an EC50 in the test on TNF (Homo sapiens, PBMC) above 20000 nM.

The molecule `CCc1ccc2c(=O)n(CC(=O)N[C@H]3C[C@@](C)(O)C3)nc(CC)c2n1` [Compound 6] showed an IC50 in the test on IL-1β (Homo sapiens, PBMC) of 780 nM. For the same molecule, it took 17800 nM to reach a half-maximal effect with TNF (Homo sapiens, PBMC) (EC50).

For the molecule `CN(C)c1nn(CC(=O)Nc2ccc3nncn3n2)c(=O)c2ccc(C(F)(F)F)nc12` [Compound 22], in the test with IL-1β, the IC50 worked out at 150 nM. The EC50 in the test with TNF is 5860 nM.
